Assay results reported in US12564555B2, “Continuous processes for manufacturing impregnated porous carriers and for manufacturing pharmaceuticals containing impregnated porous carriers” (Rutgers, The State University of New Jersey, priority 2019, dated 2026).

Test: Dissolution test, rotating paddle method, DI water (Example 2)
Format: physicochemical
Details: 900 ml DI water, 50 rpm, 37° C., FIG. 4
Protocol: Dissolution Behavior: As part of this study, dissolution tests were performed on both pure IBU and impregnated IBU to check the effect of the impregnation process on the dissolution rate and extent of IBU. Dissolution was carried out in 900 ml of DI water at 50 rpm and 37° C. using the rotating paddle method. Samples were withdrawn at predetermined time intervals (every 3 minutes) for 60 min using a peristaltic pump attached to the dissolution device. The amount of released IBU was quantified spectrophotometrically.

IBU released within 5 minutes: less than 10%
Structure (SMILES): CC(C)Cc1ccc(C(C)C(=O)O)cc1 (stereo not shown) [pure crystal IBU, Ibuprofen]
